EC50 data for five molecules are collected here from BindingDB's records for doi:10.7270/Q2XS5SVJ (Nmmlsc, 2010).

SMILES strings stand for the structures.

Usually EC50 stands for the concentration needed to bring the measured effect to its halfway point. A lower EC50 goes with higher potency in that assay.

Guanine nucleotide-binding protein G(o) subunit alpha, sequence (P09471 whole entry): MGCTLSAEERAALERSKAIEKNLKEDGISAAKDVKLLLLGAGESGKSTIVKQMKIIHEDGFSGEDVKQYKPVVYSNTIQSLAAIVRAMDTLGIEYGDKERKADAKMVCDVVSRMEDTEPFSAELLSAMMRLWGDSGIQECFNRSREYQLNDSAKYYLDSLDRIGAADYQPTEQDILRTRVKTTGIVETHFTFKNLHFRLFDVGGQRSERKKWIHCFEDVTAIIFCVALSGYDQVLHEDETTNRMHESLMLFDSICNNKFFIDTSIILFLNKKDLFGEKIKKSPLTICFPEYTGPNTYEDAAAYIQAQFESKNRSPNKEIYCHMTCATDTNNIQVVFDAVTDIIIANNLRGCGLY

The experiment has as its target Guanine nucleotide-binding protein G(o) subunit alpha (Homo sapiens, UniProt P09471). Kind of experiment: modulators of RGS16 binding to Galphao – biochemical, multiplexed bead assay, additional SAR round, SAR follow-up (AID 2828).
With `Cc1ccc2c(Cl)c(C(=O)NCCCN3CCOCC3)sc2c1` [KUC103874N], the EC50 is more than 30 µM.

`O=C(NCCCN1CCOCC1)c1sc2cc([N+](=O)[O-])ccc2c1Cl` [3-chloranyl-N-(3-morpholin-4-ylpropyl)-6-nitro-1-benzothiophene-2-carboxamide] came in with a 50% effective concentration (EC50) of more than 30 µM.

On to `O=C(c1sc2cc([N+](=O)[O-])ccc2c1Cl)N1CCNCC1`, for which the EC50 was more than 30 µM.

Regarding `O=C(NCCCn1ccnc1)c1sc2cc([N+](=O)[O-])ccc2c1Cl` [3-chloro-N-[3-(1-imidazolyl)propyl]-6-nitro-1-benzothiophene-2-carboxamide], the EC50 is more than 30 µM.

Turning to `NC(=O)c1sc2cc([N+](=O)[O-])ccc2c1Cl` [KSC-1-100], the 50% effective concentration (EC50) is more than 30 µM.
